These results are taken from patent US8349868B2, “Azaquinolones that inhibit prolyl hydroxylase” (Amgen Inc., priority 2007, dated 2013).

What all share (format): biochemical
One assay has as its target HIF PHD2 (Homo sapiens, UniProt Q9GZT9). Nature of the assay: PHD2 inhibition assay, TR-FRET detection with VCB-Eu. On the procedure:
Inhibition of HIF PHD2 activity was quantified utilizing the TR-FRET technology. HIF PHD2 catalyzes a hydroxyl modification on the proline residue of the P564-HIF1α peptide substrate (Biotin-[…] (SEQ ID NO: 7)) resulting in recognition and binding of the europylated Von Hippel-Lindau protein (pVHL), elongin B and elongin C heterotrimeric (VCB-Eu) complex.
The PHD2 inhibition assay was executed by addition of freshly dissolved FeCl2 to 178.57 μM (100 μM final concentration) in PHD2 Reaction Buffer containing 30 mM MES, pH 6, 10 mM NaCl, 0.25% Brij-35, 0.01% BSA, and 1% DMSO. 28 μL of the iron solution and 2 μL of inhibitor compounds serially diluted in 100% DMSO (5% DMSO final) were added to black polypropylene 96-well microtiter plates. To that, 10 μL of 10 nM PHD2 (2 nM final) was added to all wells of the plate except for the 8 wells of column 12 (LO control), and allowed to incubate at room temperature on the shaker for one hour. Column 6 was the HI control containing PHD2 enzyme and 5% DMSO vehicle, but no inhibitor compound. To initiate the PHD2 enzymatic reaction, 10 μL of a solution containing 500 nM P564-HIF1α peptide (100 nM final), 10 mM ascorbic acid (2 mM final), and 1.25 μM 2-oxoglutarate (α-ketoglutarate; 0.25 μM final) in PHD2 Reaction Buffer was added to all wells of the plate and allowed to incubate on the shaker at room temperature for one hour.
The reaction was terminated by addition of 25 μL TR-FRET Buffer (50 mM TRIS-HCl, pH 9, 100 mM NaCl, 0.05% BSA, and 0.5% Tween-20) containing 150 mM succinate (product inhibitor; 50 mM final), 75 nM streptavidin-APC (25 nM final), and 7.5 nM VCB-Eu (2.5 nM final). The TR-FRET detection reagents were placed on a shaker for 1 hour to reach binding equilibrium before reading on the Discovery platform (PerkinElmer). Europium is excited at 315 nm and phosphoresces at 615 nm with a large Stoke's shift. APC, in turn, emits at 655 nm upon excitation at 615 nm. The TR-FRET signal is measured as the ratio of the APC 655 nm signal divided by the internal europium reference 615 nm emission signal.
The POC (percentage of control) was determined by comparing the signal from hydroxylated peptide substrate in the enzyme reaction containing inhibitor compound with that from PHD2 enzyme with DMSO vehicle alone (HI control), and no enzyme (LO control). POC was calculated using the formula: % control (POC)=(cpd−average LO)/(average HI−average LO)*100. Data (consisting of POC and inhibitor concentration in μM) was fitted to a 4-parameter equation (y=A+((B−A)/(1+((x/C)^[…]))), where A is the minimum y (POC) value, B is the maximum y (POC), C is the x (cpd concentration) at the point of inflection and D is the slope factor) using a Levenburg-Marquardt non-linear regression algorithm.

For assay [1], the target named is T1, Collagen Prolyl Hydroxylase I (CPH1) (Homo sapiens, UniProt P13674).
T1 construct: made in house; host or cells: Trichoplusia ni insect cells (baculovirus)
Put plainly: Collagen prolyl hydroxylase I activity by radiometric HPLC measurement of 2-oxoglutarate conversion to succinic acid. The note with it: Table 5; 50 μM 2-oxoglutarate, 100 μM PPG10, 10 μM FeSO4.
Procedure: Product inhibition was not evident. Compounds were dissolved and serially diluted in 100% DMSO for potency determination. Assay Buffer consisted of Tris-HCl, pH 7.5, 0.2 mM DTT, and 0.5 mg/ml catalase. PPG10 peptide was dissolved in 0.25% acetic acid and denatured by boiling for 5 minutes then placed on ice for 5 minutes. The denatured PPG10 was then pre-mixed with 1 M ascorbate, prepared in water, and the mixture diluted with Assay Buffer to yield a working solution of 5× peptide and ascorbate. FeSO4 was freshly dissolved in water and diluted to a 2.8× concentration in Assay Buffer. Enzyme stocks were diluted to a 5× concentration in Assay Buffer. Example compounds plus FeSO4 solution were mixed, followed by addition of 5× enzyme solutions. After 10 minutes gentle mixing at room temperature, the 5× peptide solution was added. After another 10 minutes gentle mixing at room temperature, a 5× stock of 2-OG was added to initiate the reaction. Final concentrations in the assay were: 50 mM Tris-HCl, pH 7.5, 0.2 mM DTT, 0.5 mg/mL catalase, 10 μM FeSO4, 100 μM PPG10, 50 μM 5-[^14C]-2-oxoglutarate (23-37 cpm/μmol), 1 mM ascorbate, and 4% DMSO. Reactions were gently mixed at room temperature for 1 hour and terminated by addition of an equal volume of 0.02 NH2SO4.
A portion of each terminated reaction was auto-injected into a Polypore H column (PerkinElmer, Waltham, Mass.) at a rate of 0.3 mL/min with 0.01 N H2SO4 as the mobile phase. […] An Agilent 1100 HPLC System with dual quaternary pumps, column switching valve, and dual columns was used to resolve product from substrate. The Agilent 1100 Multiple Wavelength Detector indicated UV absorption of the substrate and product peaks at 210 nm and a Beta-RAM Model 2 radiation detector with In-Flow 2:1 scintillation cocktail (IN/US Systems Inc.) enabled quantitation of the 2 radioactive peaks. Laura Lite software (IN/US, Tampa, Fla.) was used to collect and analyze radiometric data. AUC measurements were converted to percent turnover of 2-OG. To standardize across studies, 2-OG conversion was normalized to percent of control (POC) values using reactions that lacked enzyme or inhibitor as low and high controls, respectively. POC data was fitted to the 4-parameter logistic model (A+((B−A)/(1+((x/C)^D)))) using ActivityBase (IDBS, Alameda Calif.) where A is the minimum POC value, B is the maximum POC value, D is the slope factor, and C is compound concentration at the inflection point (IC50, micromolar).

The target of assay [2] is T2, Collagen Prolyl Hydroxylase II (CPH2) (Homo sapiens, UniProt O15460).
T2 construct: made in house; host or cells: Trichoplusia ni insect cells (baculovirus)
Nature of the assay: Collagen prolyl hydroxylase II activity by radiometric HPLC measurement of 2-oxoglutarate conversion to succinic acid. The note with it: Table 5; 50 μM 2-oxoglutarate, 100 μM PPG10, 10 μM FeSO4. On the procedure: Assay conditions were established in separate studies to define dependence on dithiothreitol (DTT), ascorbate, and catalase, and to define reaction linearity and Km values for 2-oxoglutarate (2-OG; PerkinElmer LAS, Shelton, Conn. or Moravek Biochemicals, Brea, Calif.), FeSO4, and (Pro-Pro-Gly)10 peptide (PPG10; Peptides International, Louisville, Ky.). […] Product inhibition was not evident. Compounds were dissolved and serially diluted in 100% DMSO for potency determination. Assay Buffer consisted of Tris-HCl, pH 7.5, 0.2 mM DTT, and 0.5 mg/ml catalase. PPG10 peptide was dissolved in 0.25% acetic acid and denatured by boiling for 5 minutes then placed on ice for 5 minutes. The denatured PPG10 was then pre-mixed with 1 M ascorbate, prepared in water, and the mixture diluted with Assay Buffer to yield a working solution of 5× peptide and ascorbate. FeSO4 was freshly dissolved in water and diluted to a 2.8× concentration in Assay Buffer. Enzyme stocks were diluted to a 5× concentration in Assay Buffer. Example compounds plus FeSO4 solution were mixed, followed by addition of 5× enzyme solutions. After 10 minutes gentle mixing at room temperature, the 5× peptide solution was added. After another 10 minutes gentle mixing at room temperature, a 5× stock of 2-OG was added to initiate the reaction. Final concentrations in the assay were: 50 mM Tris-HCl, pH 7.5, 0.2 mM DTT, 0.5 mg/mL catalase, 10 μM FeSO4, 100 μM PPG10, 50 μM 5-[^14C]-2-oxoglutarate ([…]), 1 mM ascorbate, and 4% DMSO. Reactions were gently mixed at room temperature for 1 hour and terminated by addition of an equal volume of 0.02 NH2SO4. Unless otherwise indicated, all reagents were obtained from Sigma and were the highest grade available.
A portion of each terminated reaction was auto-injected into a Polypore H column (PerkinElmer, Waltham, Mass.) at a rate of 0.3 mL/min with 0.01 N H2SO4 as the mobile phase. The HPLC method employed exploits the difference in pKa of the 2-OG and SA carboxylates to chromatographically separate substrate from product at low pH on ion-exchange resin, as described by Cunliffe, et al (Biochem J., 240, 617-619 (1986)) and Kaule and Gunzler (Anal. Biochem., 184, 291-297 (1990)). An Agilent 1100 HPLC System with dual quaternary pumps, column switching valve, and dual columns was used to resolve product from substrate. The Agilent 1100 Multiple Wavelength Detector indicated UV absorption of the substrate and product peaks at 210 nm and a Beta-RAM Model 2 radiation detector with In-Flow 2:1 scintillation cocktail (IN/US Systems Inc.) enabled quantitation of the 2 radioactive peaks. Laura Lite software (IN/US, Tampa, Fla.) was used to collect and analyze radiometric data. AUC measurements were converted to percent turnover of 2-OG. To standardize across studies, 2-OG conversion was normalized to percent of control (POC) values using reactions that lacked enzyme or inhibitor as low and high controls, respectively. POC data was fitted to the 4-parameter logistic model (A+((B−A)/(1+((x/C)^D)))) using ActivityBase (IDBS, Alameda Calif.) where A is the minimum POC value, B is the maximum POC value, D is the slope factor, and C is compound concentration at the inflection point (IC50, micromolar).
The Baculovirus Expression Vector System (BEVS) from Invitrogen was used to express collagen prolyl 4-hydroxylase (CPH) in Trichoplusia ni insect cells. Active collagen prolyl 4-hydroxylase is an oligomeric protein that exists as an α2β2 tetramer. The alpha subunits incorporated into the tetramer can be either collagen prolyl 4-hydroxylase α1 (GenBank reference sequence NM_000917) or collagen prolyl 4-hydroxylase α2 (GenBank reference sequence NM_004199). The beta subunit, collagen prolyl 4-hydroxylase β (GenBank reference sequence NM_000918), is common to both forms of the tetramer. […]

[3] abbreviates: Table 5, Example and Comparative Compounds.
Setting [4] is: Table 4, TR-FRET, 2 nM PHD2, 100 nM P564-HIF1α peptide, 0.25 μM 2-oxoglutarate.

The structures appear in SMILES notation.

T2 sequence (O15460 22-533 isoform O15460-2): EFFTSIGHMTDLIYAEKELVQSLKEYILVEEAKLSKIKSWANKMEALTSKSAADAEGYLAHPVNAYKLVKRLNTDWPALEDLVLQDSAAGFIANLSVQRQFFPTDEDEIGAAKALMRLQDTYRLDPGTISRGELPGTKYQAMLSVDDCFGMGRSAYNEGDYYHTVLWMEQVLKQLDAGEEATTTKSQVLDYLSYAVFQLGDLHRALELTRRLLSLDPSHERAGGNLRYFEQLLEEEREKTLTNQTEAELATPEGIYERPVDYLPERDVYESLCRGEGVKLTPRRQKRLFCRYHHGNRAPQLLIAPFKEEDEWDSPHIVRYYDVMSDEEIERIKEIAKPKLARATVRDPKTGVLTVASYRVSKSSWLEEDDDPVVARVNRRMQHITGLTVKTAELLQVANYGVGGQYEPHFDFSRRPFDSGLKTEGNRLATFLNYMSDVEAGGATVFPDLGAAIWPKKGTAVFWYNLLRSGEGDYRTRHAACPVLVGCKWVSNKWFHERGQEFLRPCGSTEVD
T2 sequence (P07237 18-508 partner): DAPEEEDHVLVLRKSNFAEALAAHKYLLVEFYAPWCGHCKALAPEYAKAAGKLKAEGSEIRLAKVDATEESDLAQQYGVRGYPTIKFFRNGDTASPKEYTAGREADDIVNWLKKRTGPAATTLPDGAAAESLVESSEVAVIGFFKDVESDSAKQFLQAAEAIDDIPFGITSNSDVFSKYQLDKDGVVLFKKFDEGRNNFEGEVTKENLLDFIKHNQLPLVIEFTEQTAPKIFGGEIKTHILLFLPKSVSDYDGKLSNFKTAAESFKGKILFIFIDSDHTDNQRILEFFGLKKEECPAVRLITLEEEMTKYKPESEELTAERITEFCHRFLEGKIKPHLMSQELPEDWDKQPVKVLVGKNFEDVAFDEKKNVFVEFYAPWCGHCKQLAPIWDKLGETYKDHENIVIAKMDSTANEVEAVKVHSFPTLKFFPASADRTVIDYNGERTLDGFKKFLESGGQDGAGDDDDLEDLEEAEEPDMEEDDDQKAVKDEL
T1 sequence (P13674 18-534 isoform P13674-2): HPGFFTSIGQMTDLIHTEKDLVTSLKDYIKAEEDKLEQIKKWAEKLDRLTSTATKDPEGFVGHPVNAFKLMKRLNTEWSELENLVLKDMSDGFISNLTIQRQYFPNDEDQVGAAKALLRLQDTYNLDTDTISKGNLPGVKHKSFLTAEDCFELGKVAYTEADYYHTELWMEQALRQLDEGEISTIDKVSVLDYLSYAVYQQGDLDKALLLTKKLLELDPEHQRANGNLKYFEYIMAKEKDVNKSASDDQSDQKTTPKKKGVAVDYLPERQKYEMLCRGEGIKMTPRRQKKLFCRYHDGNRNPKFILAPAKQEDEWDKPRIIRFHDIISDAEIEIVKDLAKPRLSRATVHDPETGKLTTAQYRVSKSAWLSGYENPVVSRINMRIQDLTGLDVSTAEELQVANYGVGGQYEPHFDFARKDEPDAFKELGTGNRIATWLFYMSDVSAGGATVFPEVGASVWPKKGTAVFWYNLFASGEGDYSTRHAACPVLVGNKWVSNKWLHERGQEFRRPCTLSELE
T1 sequence (P07237 18-508 partner): as the sequence (P07237 18-508 partner) above
Sequence of HIF PHD2 (Q9GZT9 whole entry): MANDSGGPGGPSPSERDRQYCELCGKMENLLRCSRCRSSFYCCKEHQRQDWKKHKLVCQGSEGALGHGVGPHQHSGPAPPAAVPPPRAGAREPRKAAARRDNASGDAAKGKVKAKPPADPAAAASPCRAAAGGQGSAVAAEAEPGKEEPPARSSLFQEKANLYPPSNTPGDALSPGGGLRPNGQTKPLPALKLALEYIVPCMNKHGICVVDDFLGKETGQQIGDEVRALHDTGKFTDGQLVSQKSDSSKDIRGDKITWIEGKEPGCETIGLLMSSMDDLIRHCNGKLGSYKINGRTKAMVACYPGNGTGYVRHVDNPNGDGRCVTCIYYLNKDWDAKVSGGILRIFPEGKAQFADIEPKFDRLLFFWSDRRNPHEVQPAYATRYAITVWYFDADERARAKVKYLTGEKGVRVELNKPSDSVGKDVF

As a reminder, the IC50 is the concentration that gives 50% inhibition. Lower therefore signals inhibition by little substance. Turning to `Cn1c(=O)c(C(=O)NCC(=O)O)c(O)c2c(Br)cccc21` [Comparative Compound 1, reference compound], the IC50 is 188 nM against HIF PHD2 (setting [3]), 341 nM in assay [1] and 58 nM in assay [2]. `Cn1c(=O)c(C(=O)NCC(=O)O)c(O)c2cc(Br)ccc21` [Comparative Compound 2, reference compound]: the IC50 at HIF PHD2 (setting [3]) worked out at 351 nM; in assay [1] it was 404 nM; in assay [2], 115 nM. With `Cn1c(=O)c(C(=O)NCC(=O)O)c(O)c2ccc(Br)cc21` [Comparative Example 3, reference compound], the IC50 turned out to be 46 nM on HIF PHD2 (setting [3]), 351 nM in assay [1] and 111 nM in assay [2]. The corresponding values for `Cn1c(=O)c(C(=O)NCC(=O)O)c(O)c2cccc(Br)c21` [Comparative Example 4, reference compound] are 104 nM, 503 nM and 261 nM. `Cn1c(=O)c(C(=O)CCC(=O)O)c(O)c2cc(I)cnc21` [Example 1, 4-(4-hydroxy-6-iodo-1-methyl-2-oxo-1,2-dihydro-1,8-naphthyridin-3-yl)-4-oxobutanoic acid] had an IC50 against HIF PHD2 (setting [4]) of 208 nM.

As to `Cn1c(=O)c(C(=O)CCC(=O)O)c(O)c2cccc(Br)c21` [Example 2, 4-(8-bromo-4-hydroxy-1-methyl-2-oxo-1,2-dihydroquinolin-3-yl)-4-oxobutanoic acid], the IC50 at HIF PHD2 (setting [4]) amounted to 775 nM; in assay [1] it was 22700 nM; in assay [2], 1870 nM.

With `Cn1c(=O)c(C(=O)CCC(=O)O)c(O)c2ccc(C(F)(F)F)nc21` [Example 3, 4-(4-hydroxy-1-methyl-2-oxo-7-(trifluoromethyl)-1,2-dihydro-1,8-naphthyridin-3-yl)-4-oxobutanoic acid], half-maximal inhibition against HIF PHD2 (setting [4]) (IC50) was put at 64.5 nM.

For `Cn1c(=O)c(C(=O)CCC(=O)O)c(O)c2ccc(Br)cc21` [Example 4, 4-(7-bromo-4-hydroxy-1-methyl-2-oxo-1,2-dihydroquinolin-3-yl)-4-oxobutanoic acid], the IC50 against HIF PHD2 (setting [4]) amounted to 64.9 nM; against HIF PHD2 (setting [3]), 64.9 nM; in assay [2] it was 13400 nM. On HIF PHD2 (setting [4]), `Cn1c(=O)c(C(=O)CCC(=O)O)c(O)c2ccccc21` [Example 5, 4-(4-hydroxy-1-methyl-2-oxo-1,2-dihydroquinolin-3-yl)-4-oxobutanoic acid] registered an IC50 of 566 nM.

The compound `O=C(O)CCC(=O)c1c(O)c2ccc(F)c(F)c2n(Cc2ccccc2)c1=O` [Example 6, 4-(1-benzyl-7,8-difluoro-4-hydroxy-2-oxo-1,2-dihydroquinolin-3-yl)-4-oxobutanoic acid] registered an IC50 at HIF PHD2 (setting [4]) of 135 nM. Regarding `Cn1c(=O)c(C(=O)CCC(=O)O)c(O)c2cc(Br)ccc21` [Example 7, 4-(6-bromo-4-hydroxy-1-methyl-2-oxo-1,2-dihydroquinolin-3-yl)-4-oxobutanoic acid], the IC50 is 309 nM on HIF PHD2 (setting [4]) and 3820 nM in assay [2]. In the case of `Cn1c(=O)c(C(=O)CCC(=O)O)c(O)c2c(Br)cccc21` [Example 8, 4-(5-bromo-4-hydroxy-1-methyl-2-oxo-1,2-dihydroquinolin-3-yl)-4-oxobutanoic acid], the IC50 worked out at 343 nM against HIF PHD2 (setting [4]) and 5280 nM in assay [2]. As for `Cn1c(=O)c(C(=O)CCC(=O)O)c(O)c2c(F)ccc(F)c21` [Example 9, 4-(5,8-difluoro-4-hydroxy-1-methyl-2-oxo-1,2-dihydroquinolin-3-yl)-4-oxobutanoic acid], the IC50 against HIF PHD2 (setting [4]) was determined as 779 nM.

Compound `Cn1c(=O)c(C(=O)CCC(=O)O)c(O)c2ccc(F)c(F)c21` [Example 10, 4-(7,8-difluoro-4-hydroxy-1-methyl-2-oxo-1,2-dihydroquinolin-3-yl)-4-oxobutanoic acid] returned an IC50 against HIF PHD2 (setting [4]) of 285 nM. The compound `Cn1c(=O)c(C(=O)CCC(=O)O)c(O)c2ccc(-c3ccc(C(=O)O)cc3)cc21` [Example 11, 4-(3-(3-carboxypropanoyl)-4-hydroxy-1-methyl-2-oxo-1,2-dihydroquinolin-7-yl)benzoic acid] returned an IC50 against HIF PHD2 (setting [4]) of 11.4 nM.
